# “And” between values parts separate entries of the source, which are not always exact repeats. Equal values may be shown once.
# What was measured:
# MpPA14 [1] = target: T1, MpPA14 (Marinomonas primoryensis, UniProt A1YIY3); assay: Dextran-based comparative competition assay (MpPA14); assay type: binding
# From the text: To gain insight into the binding specificity of MpPA14, we investigated the relative affinity of various monosaccharides for the lectin by a comparative competition assay ([12]). MpPA14 bound to Superdex resin was competitively released into solution by the progressive addition of free sugars. The released protein concentrations measured by absorbance at 280 nm were plotted as a function of free sugar concentration to produce semiquantitative binding curves (Fig. 1A and B). The apparent dissociation constant (Kdapp) calculated from these binding curves was used as a relative measure of affinity for each assayed sugar (Table 1). […] D-Ribose bound […] more strongly than its derivative 2-deoxy-D-ribose (Kdapp of 6.8 mM as opposed to 18 mM; Fig. 1B and Table 1).
# (§1) The dextran resin competition assay was performed as previously described for MhPA14 ([12]). Briefly, Superdex 200 (S200) resin was washed twice with 50 mM Tris-HCl (pH 9), 150 mM NaCl, and 5 mM CaCl2. One ml of 1 mg/ml MpPA14 with green fluorescent protein (GFP) fused to its N terminus (GFP-MpPA14) or VcPA14 labeled with FITC was suspended with 300 μl of equilibrated Superdex 200 (S200) resin. Following an incubation period with gentle mixing, the S200 resin bound with GFP-MpPA14 was pelleted by centrifugation. The pellet was washed twice with 50 mM Tris-HCl (pH 9), 150 mM NaCl, and 5 mM CaCl2, and the A280 of the supernatant from the second wash was used as the baseline reading. Next, after resuspension in the same buffer, aliquots of 1.67 μmol saccharide were sequentially added to the solution six or seven times, with the A280 of the supernatant being measured after each addition to quantify the release of lectin. The final addition of saccharide was […]. Data from the dextran affinity assay were plotted using GraphPad Prism after subtracting the background. Next, the data were fitted to a nonlinear regression of one-site-specific binding, which follows the model y/Bmax = x/(Kd + x), with Bmax as the maximum specific binding and Kd as the equilibrium binding constant.
# MpPA14 [2] = target: T1, MpPA14; assay: Isothermal titration calorimetry; assay type: binding; settings: 30°C; for ΔH (enthalpy) / ΔS (entropy) / binding stoichiometry (N value): ITC; for binding stoichiometry (N value): one-binding-site model; for Kd: Kd (dissociation constant, ITC), free sugar in solution
# From the text: The ITC measurements produced rectangular hyperbolic curves for all three simple saccharides, and fitted well to a one-binding-site model with calculated binding stoichiometry (N) values being close to 1 ([12], [21]). […] However, this is to be expected, because the dextran beads used in the competition assay have multiple binding sites nearby that attract the lectin, whereas the calorimetry was done with free sugars in solution. […] In general, the affinity of lectins for monosaccharides (Kd values) lies within the high micromolar to millimolar range ([8], [30], [31]). […] Furthermore, negative enthalpy (ΔH) and entropy (ΔS) contributions were calculated for all three carbohydrates when they bound to MpPA14, which indicated the binding was driven primarily by polar interaction such as the formation of hydrogen and ionic bonds rather than by hydrophobic interactions. This was consistent with the observation that the Ca^2+-dependent ligand-binding site of MpPA14 consisted of mainly polar and charged amino acids without any residues with large hydrophobic side chains. We therefore acquired detailed structural information to study MpPA14 ligand recognition.
# Isothermal titration calorimetry (ITC) measurements were performed at 30°C with a MicroCal VP-ITC instrument (Malvern). […] Sugars were automatically added by a rotating syringe (400 rpm) at 5-min intervals into the MpPA14 solution for a total of 50 injections. The data were analyzed with Origin software version 5.0 (MicroCal).
# [3] = system: FITC-labeled VcPA14 binding to C. neogracile; assay: Diatom binding experiment with FITC-VcPA14; assay type: cell-based, Chaetoceros neogracile; settings: 0.5 mM sugar
# Procedure: (§2) As proof of concept for the antiadhesion strategy that targets microbial pathogens, we studied the VcPA14 lectin domain from a large 6,938-amino-acid RTX adhesin (GenBank accession number WP_154597608) of the cholera-causing bacterium, V. cholerae. As discussed, VcPA14 has a similar ligand-binding site as that of MpPA14 (Fig. S1), with key sugar-binding residues conserved (Fig. S1G).
# The Antarctic diatom, Chaetoceros neogracile, was cultured as previously described ([21], [50]). FITC-labeled MpPA14 or VcPA14 (FITC-MpPA14 or FITC-VcPA14, 0.2 mg/ml) in the presence or absence of sugars was incubated with diatoms in buffer (50 mM Tris-HCl [pH 9], 300 mM NaCl, and 5 mM CaCl2) with gentle mixing for 2 h. […] This procedure was repeated three times to wash away unbound FITC-MpPA14 before the diatom pellet was finally resuspended in 20 μl buffer, which was then used to make slides for fluorescence microscopy. […]
# Images were obtained using an Olympus IX83 inverted fluorescence microscope equipped with an Andor Zyla 4.2 Plus camera. Quantification of the fluorescence intensity was done using Fiji ImageJ. The corrected total cell fluorescence (CTCF) was calculated using the following formula: CTCF = integrated density − (area of selected cell × mean fluorescence of the background) ([60]). Quantification of 30 individual diatom cells was done for each treatment. […]
# [4] = system: FITC-labeled MpPA14 binding to the diatom Chaetoceros neogracile; assay: Diatom binding experiment with FITC-MpPA14; assay type: cell-based
# From the text: C. neogracile is a psychrophilic marine diatom found in Antarctic waters ([50]). […] Each diatom cell has 1 to 4 projections protruding from the corners. Given its photosynthetic capability, C. neogracile contains chlorophyll that is intrinsically fluorescent. […] We reason that glycans coating the diatom cell membrane present numerous end group binding sites in close proximity that can serve as a “molecular Velcro” for MpPA14 binding ([30]).
# The Antarctic diatom, Chaetoceros neogracile, was cultured as previously described ([21], [50]). FITC-labeled MpPA14 or VcPA14 (FITC-MpPA14 or FITC-VcPA14, 0.2 mg/ml) in the presence or absence of sugars was incubated with diatoms in buffer (50 mM Tris-HCl [pH 9], 300 mM NaCl, and 5 mM CaCl2) with gentle mixing for 2 h. Next, diatoms were pelleted by centrifugation for 3 min at 7,000 rpm, and the resulting supernatant was discarded. This procedure was repeated three times to wash away unbound FITC-MpPA14 before the diatom pellet was finally resuspended in 20 μl buffer, which was then used to make slides for fluorescence microscopy. In a separate experiment to test if fucose could compete off the MpPA14 that was already bound to diatoms, FITC-MpPA14 was incubated with diatom for 1.5 h before fucose was added. The rest of the experiment followed the same procedure as described above.
# Images were obtained using an Olympus IX83 inverted fluorescence microscope equipped with an Andor Zyla 4.2 Plus camera. Quantification of the fluorescence intensity was done using Fiji ImageJ. The corrected total cell fluorescence (CTCF) was calculated using the following formula: CTCF = integrated density − (area of selected cell × mean fluorescence of the background) ([60]). Quantification of 30 individual diatom cells was done for each treatment. Graphs were made using GraphPad Prism.
# VcPA14 = assay: Dextran-based comparative competition assay (VcPA14); assay type: binding, Vibrio cholerae; settings: FITC-VcPA14 on Superdex 200 resin
# Procedure: as §2
# as §1, with “Data from the dextran affinity assay were plotted using GraphPad Prism after subtracting the background. Next, the data were fitted to a nonlinear regression of one-site-specific binding, which follows the model y/Bmax = x/(Kd + x), with Bmax as the maximum specific binding and Kd as the equilibrium binding constant.” left out
# [5] = GFP-MpPA14 bound to Superdex 200 resin released by free sugar, A280, pH 9, 5 mM CaCl2, – = no detectable binding (footnote a), read-out: Kdapp (apparent dissociation constant)
# T1 sequence (A1YIY3 entry or part of it): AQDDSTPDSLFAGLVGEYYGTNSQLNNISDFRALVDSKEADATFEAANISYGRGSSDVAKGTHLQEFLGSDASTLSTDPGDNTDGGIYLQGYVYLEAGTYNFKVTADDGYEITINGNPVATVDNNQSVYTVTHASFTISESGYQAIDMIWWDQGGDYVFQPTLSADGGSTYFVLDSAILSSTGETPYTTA
smiles,measurement,setting,value
"CO[C@@H]([C@H](O)[C@H](O)CO)[C@@H](O)C=O [3-O-methyl-glucose, 3-O-methyl-D-glucose]",Kd,MpPA14 [1],5.7 mM
"O=C[C@H](O)[C@@H](O)[C@@H](O)[C@H](O)CO [Galactose, D-galactose]",Kd,MpPA14 [1],4.1 mM
OC[C@H]1OC(O)[C@H](O)[C@@H](O)[C@@H]1O (stereo partly shown) [Glucose],ΔH (enthalpy),MpPA14 [2],"-10,880 ± 42.71 cal/mol"
same,ΔS (entropy),MpPA14 [2],-20.1 cal/ mol/K
same,binding stoichiometry (N value),MpPA14 [2],0.952 ± 0.0216
same,Kd,MpPA14 [2],0.35 mM
same,Kd,MpPA14 [1],1.36 mM and 1.4 mM
"O[C@H]1[C@H](O)[C@@H](O)[C@H](O)[C@@H](O)[C@H]1O [Inositol, myo-inositol]",Kd,MpPA14 [1],2.7 mM
"C[C@H](O)[C@@H](O)[C@@H](O)[C@H](O)C=O [L-Fucose, L-fucose]",ΔH (enthalpy),MpPA14 [2],"-11,800 ± 191.8 cal/mol"
same,ΔS (entropy),MpPA14 [2],-21.4 cal/ mol/K
same,binding stoichiometry (N value),MpPA14 [2],1.01 ± 0.0131
same,Kd,MpPA14 [2],0.147 mM and ~0.15 mM
same,Kd,MpPA14 [1],0.65 mM
same,blocking of FITC-VcPA14 binding to C. neogracile (in words),[3],largely blocked
same,fluorescent signal displaced (competitive effect),"[4]; 0.1 mM sugar, 0.2 mg/ml FITC-MpPA14",~40%
same,effect on diatoms precoated with FITC-labeled MpPA14 (in words),[4]; 0.5 mM sugar added after 1.5 h incubation of lectin with diatoms,resulted in the dissociation of the lectin from the cells
same,fluorescent signal displaced,"[4]; 0.5 mM sugar, 0.2 mg/ml FITC-MpPA14",95%
"OC[C@H]1OC(O)[C@@H](O)[C@@H](O)[C@@H]1O (stereo partly drawn) [Mannose, D-Mannose]",Kd,MpPA14 [1],1.7 mM
"COC1OC(CO)C(O)C(O)C1O [Methyl-α-glucose, methyl-α-D-glucose]",Kd,MpPA14 [1]; [5],2.1 mM
CC(=O)N[C@@H]1[C@@H](O)[C@@H](O)[C@@H](CO)O[C@@H]1O [N-acetyl-galactosamine],Kdapp (apparent dissociation constant),"MpPA14 [1]; GFP-MpPA14 bound to Superdex 200 resin released by free sugar, A280, pH 9, 5 mM CaCl2, – = no detectable binding (footnote a)",no measurable interaction
same,Kd,MpPA14 [1]; [5],> 18 mM
same,relative binding to VcPA14 (in words),VcPA14,cannot bind
same,prevention of lectin binding to the diatom (in words),"[4]; 50 mM sugar, 0.2 mg/ml FITC-MpPA14",unable to prevent the lectin from binding the diatom
"CC(=O)N[C@@H]1[C@@H](O)[C@H](O)[C@@H](CO)O[C@H]1O [N-acetyl-glucosamine, N-acetylglucosamine]",ΔH (enthalpy),MpPA14 [2],"-15,810 ± 226.1 cal/mol"
same,ΔS (entropy),MpPA14 [2],-34.9 cal/ mol/K
same,binding stoichiometry (N value),MpPA14 [2],1 ± 0.0116
same,Kd,MpPA14 [2],0.17 mM and ~0.15 mM
same,Kd,MpPA14 [1],1.07 mM
same,relative binding to VcPA14 (in words),VcPA14,more strongly than glucose
"O=C[C@H](O)[C@H](O)[C@H](O)CO [Ribose, D-Ribose]",Kd,MpPA14 [1]; [5],6.8 mM
O=C[C@H](O)[C@@H](O)[C@H](O)CO [Xylose],Kd,MpPA14 [1],11 mM

# Reference: paper PMC8092209, “Structural Basis of Ligand Selectivity by a Bacterial Adhesin Lectin Involved in Multispecies Biofilm Formation” (mBio, 2021)
